Results on 1 substance are retold here after patent publication US20190321426A1, “COMBINATION THERAPIES WITH CANNABIS PLANT EXTRACT” (TIKUN OLAM LTD, priority 2016, published 2019).

A short description of this data set: Cutaneous wound (skin lesion) at the site of repeated s.c. Copaxone injection in EAE mice. It is filed as in vivo. As to conditions: s.c. injection on the mice back; 7 mice/group. How it is done:
The treatments were given daily, five times a week and usually continued for about 60 days. GA were given s.c (at an injection dose of 1 mg/mouse), and cannabis extracts were administrated i.p. (intraperitoneal).
In mice treated with the Copaxone only (2 out of 7 mice), a skin lesion developed on the mice back at the site of repeated Copaxone injections.

For glatiramer acetate [Copaxone], the “skin lesion at the site of repeated Copaxone injections” value is given as 2 out of 7.
